{"source": "patent US20070185431A1", "about": "“Galvanic Current Skin Treatment” (priority 2006, published 2007)", "key": {"[1]": {"test": "Franz cell skin penetration of the other compounds with and without current (Phoresor)", "text": "Thus, for a 1% theobromine solution, a Tris-glycine buffer at pH 12 was chosen. […] By putting theobromine into 0.1N NaOH at pH 12, this compound is ionized to a negative charge. No information was readily available regarding the pKa of Ergothioneine (Thiotaine) but based on its structure, it would appear to have a relatively low pKa and thus be negatively charged at pH 8.0.\nFor experiments, the electrodes from the Phoresor were applied to the Franz unit with the negative electrode in contact with the skin's surface and in contact with the compound solution being applied. Each compound was tested on 5 skins for skin penetration without current and 5 skins for skin penetration with current.\nNote that the time=0 for the bar graphs discussed below represents the time at which the galvanic current was terminated.\nA 60 microliter solution of aminophylline in PBS (pH 7.0) gelled slightly with 0.5% HEC was applied to human breast skin mounted in Franz cell chambers. A 0.4 mAmp current was applied for either 6.25 minutes (for a 2.5 mAmp×time dose) or 12.5 minutes to produce a 5 mAmp×time dose. At 6 hours samples were withdrawn for analysis and a second dose applied only to the skin receiving a 2.5 mAmp×time pulse at T=0. Samples were withdrawn for analysis at T=12 hours and again at T=24 hours.\nThus, its rate of dissociation is not going to be high in an aqueous solvent. in order to shift the equilibrium to the anion form of theobromine we prepared a 1% solution in Tris-glycine buffer adjusted to pH 12 with IN NaOH. Franz studies were then carried out using a 2.5 mAmp×time pulse."}, "[2]": {"test": "Skin penetration of caffeine in modified Franz cells with galvanic current application device", "assay_type": "in vitro ADME, human", "text": "According to one embodiment, another method and apparatus relates to a modified Franz cell instrument and method of testing iontophoresis across a cellular membrane and the effects of an electrical current on the membrane after the electrical current has been removed. […] In this embodiment, a electrical current application device 18 is operably coupled to the Franz cell via a copper wire that connects the two electrodes of the device 18 to the Franz cell. In this embodiment, the negative electrode 16 contacts the surface of the cellular membrane via a copper wafer electrode while the positive electrode 14 is placed in the lower Franz fluid reservoir 12 to complete the circuit. Alternatively, any configuration that allows for application of an electrical current to the cellular membrane placed in the Franz cell is contemplated. According to one embodiment, the apparatus as set forth in FIG. 2 can be used to test the effects of applying electrical current to a cellular membrane.\nTo perform this examination, three modified Franz cells—each similar to the apparatus depicted in FIG. 2—were placed in series. […] As is understood in the art, 1 milliamp equals 1,000 microamps.\nTo determine the effectiveness of the current application device in enhancing the penetration of caffeine through human skin, a 1% caffeine solution was prepared in saline solution at a pH of 7.2 and an infinite dose (500 micro liters) applied to the surface of human skin mounted onto Franz cell units. One set of skin samples was left untreated to serve as the control group for passive skin penetration of caffeine. A second set was treated with one 3 minute cycle of the Galvanic unit delivering 120 microamps per skin. The standard convention for expressing the current “dose” the skin receives is Current×Time. Thus, the skin in this group received 360 microamp-minutes of current (120 microamps×3 minutes). A third group of skins were treated with 3 cycles of current (1080 microamp-minutes [shown as 1.1 mA]), and the fourth group received a dose of 4.32 mAmp-minutes (12 cycles at 3 minutes/cycle delivering 120 microamps).\nSamples were collected at 6, 12 and 24 hours and the amount of caffeine present in the receptor fluid determined by HPLC."}, "[3]": {"test": "Skin penetration of caffeine in Franz cells with iontophoretic instrument, pre-selected current dose", "assay_type": "in vitro ADME, human", "protocol": "For the first studies, Franz cells were dosed once with either: 1) no current (control), 2) 2 mAmp-minutes, 3) 5 mAmp-minutes, or 4)10 mAmp-minutes. Samples of the Franz receptor fluid were analyzed at 6, 12 and 24 hours after the current dose.\nBecause a consumer might use this product morning and evening, we separated the dose treatments by 10 hours. The experimental protocol involved applying a saline solution of 1% caffeine (pH 7.2) to human skins mounted in Franz cells. The groups were: 1) control-no dosing, 2) a dose of 2.5 mAmp-minute (0.375 mAmps for 6.67 minutes) repeated at 10 hours, and 3) a single 5 mAmp-minute. All groups contained 5 replicates. For these studies, the caffeine was only applied to the skin during the dosing phase. When a second current application was applied to the 2.5 mAmp-minute group at 10 hours, not only was the caffeine solution added to these skin samples, but it was also placed on the 5 mAmp-minute skins even though these were not treated again with current. This controlled for any skin penetration simply due to the presence of the caffeine solution on the skin. After dosing was completed any remaining caffeine solution was removed from the skin.\nBecause of the long duration of these studies, dosing was usually initiated at 7:00 am and 6 hours later the first samples were collected for analysis. At T=10 hours (5 pm) a second sample was collected and the 2.5 mAmp-minute group dosed a second time. At T=16 hours (11:00 pm) another sample was collected from the lower reservoir, and at T=24 the final samples were collected.\nFor this study, the caffeine solution was not removed from skins immediately after dosing but left on the skin for the duration of the experiment.\nWe conducted dose-response studies to begin to answer this question. For these studies, skins were dosed only once with either 0.6, 1.3, 2.5 or 5 mAmp-minutes with the current held constant at 375 uamps, the maximum output of the Galvanic unit. To each skin 400 microliters of a 1% caffeine in saline solution was applied. In order to minimize evaporation during the study, the caffeine solution was gelled slightly with hydroxyethylcellulose. Six hours after dosing, samples from the lower receptor fluid were collected and analyzed for caffeine."}, "[4]": {"conditions": "cited from earlier work"}, "[5]": {"conditions": "cited from earlier work", "remark": "listed apart in the source"}}, "note": "“Also recorded” adds a separate entry of the source."}
{"compound": "C[N+](C)(C)[C@@H](Cc1c[nH]c(=S)[nH]1)C(=O)[O-]", "note": "[Thiotaine, Ergothioneine]", "values": [{"measurement": "skin penetration to lower chamber reservoir without current", "setting": "[1]; no current, 24 hours", "result": "no compound had penetrated the skin"}, {"measurement": "relative skin permeability among the compounds studied", "setting": "[1]; simple buffer systems", "result": "least permeable"}, {"measurement": "levels in the lower reservoir with current", "setting": "[1]; single dose of 2.5 mAmp×time, 12 and 24 hours", "result": "measurable Thiotaine levels in the lower reservoir"}]}
{"compound": "Cn1c(=O)c2c(ncn2C)n(C)c1=O", "note": "[caffeine]", "values": [{"measurement": "penetration enhancement of caffeine through the skin", "setting": "[2]; 1 cycle (360 microamp-minutes)", "result": "ineffective in causing any detectable penetration enhancement"}, {"measurement": "penetration enhancement of caffeine compared to control", "setting": "[2]; 3 cycles (1080 microamp-minutes), 24 hours", "result": "some marginal enhancement of penetration; also recorded: some small enhancement in skin penetration"}, {"measurement": "penetration enhancement of caffeine through human skin", "setting": "[2]; 6 cycles (2.2 mAmp-minutes), 24 hours", "result": "did enhance delivery of caffeine"}, {"measurement": "amount of caffeine that had penetrated skin relative to control group", "setting": "[2]; 12 cycles (4.32 mAmp-minutes), 24 hours, 1% caffeine in saline pH 7.2", "result": 6, "unit": "times"}, {"measurement": "time at which increase in skin penetration was detectable", "setting": "[2]; 12 cycles (4.32 mAmps-min)", "result": "≤ 6", "unit": "h"}, {"measurement": "skin penetration: two 2.5 mAmp-minute doses versus one dose", "setting": "[3]", "result": "significantly more skin penetration of caffeine than one dose"}, {"measurement": "increase in the penetration of caffeine", "setting": "[3]; 2 mAmp-minute dose, 6 hours after treatment", "result": 1.5, "unit": "fold"}, {"measurement": "time post-dosing at which penetration enhancement was detectable", "setting": "[3]; 2.5 and 5 mAmp-minute groups, caffeine removed after dosing", "result": "≤ 6", "unit": "h"}, {"measurement": "increase in the amount of caffeine penetrating the skin", "setting": "[3]; 5 mAmp-minute dose, 6 hours", "result": 3, "unit": "fold"}, {"measurement": "amount of caffeine present in the receptor as fraction of applied dose", "setting": "[3]; 5 mAmp-minute dose, 24 hours", "result": "4 % of applied dose"}, {"measurement": "time after dosing at which enhanced penetration can be detected", "setting": "[3]; 5 mAmp-minute dose, caffeine solution left on skin", "result": "≤ 3", "unit": "h"}, {"measurement": "increase in the amount of caffeine penetrating the skin", "setting": "[3]; 10 mAmp-minute dose, 6 hours", "result": 4, "unit": "fold"}, {"measurement": "amount of caffeine penetrated: 2.5 mAmp-minute dosed twice versus 5 mAmp-minute dosed once", "setting": "[3]; 24 hours", "result": "no significant difference; also recorded: as much caffeine penetration as a single 5 mAmp-minute dose"}, {"measurement": "effect of a second 5 mAmp-minute dose versus a single 5 mAmp-minute dose", "setting": "[3]; 24 hours, caffeine left on skin", "result": "no additional accumulation of caffeine; also recorded: does not appear to significantly enhance caffeine skin penetration"}, {"measurement": "caffeine in the receptor without current", "setting": "[3]; control skins, no current, 3 hours", "result": "no presence of caffeine in the receptor"}, {"measurement": "time after dosing at which skin penetration enhancement can be detected", "setting": "[3]; single 2.5 mAmp-minute dose", "result": "≤ 3", "unit": "h"}, {"measurement": "skin penetration enhancement", "setting": "[3]; single dose of 0.6 mAmp-minutes at 375 uamps, 6 hours, gelled 1% caffeine", "result": "will enhance skin penetration"}, {"measurement": "current level above which maximal skin penetration occurs (sigmoidal fit)", "setting": "[3]; single dose, 6 hours", "result": "3-5 mAmp-minutes"}, {"measurement": "penetration enhancement of single 2.5 mAmp-minute dose relative to single 5 mAmp-minute dose", "setting": "[3]; single doses", "result": "about 50%"}]}
{"compound": "Cn1cnc2c1c(=O)[nH]c(=O)n2C", "note": "[theobromine]", "values": [{"measurement": "skin penetration from the solvent used", "setting": "[1]; pH 12", "result": "relatively poorly"}, {"measurement": "pKa", "setting": "[4]", "result": 9.9}, {"measurement": "solubility", "setting": "[5]", "result": "virtually insoluble in any solvent except dilute alkali; also recorded: essentially insoluble in any solvent other than alkali"}]}
{"compound": "Cn1c(=O)c2[nH]cnc2n(C)c1=O", "note": "[aminophylline]", "values": [{"measurement": "increase in skin flux", "setting": "[1]", "result": "only a modest increase in skin flux"}, {"measurement": "skin penetration enhancement, FIG. 9A", "setting": "[1]", "result": "produced enhanced skin penetration"}, {"measurement": "skin penetration without current", "setting": "[1]", "result": "relatively high skin penetration"}, {"measurement": "enhancement in skin penetration over control values, extrapolated", "setting": "[1]; human, 1 %", "result": 23, "unit": "%"}, {"measurement": "enhancement in skin penetration, extrapolated", "setting": "[1]; human, 1 %", "result": 9, "unit": "%"}, {"measurement": "increase in skin penetration", "setting": "[1]; human, 24 h, 1 %", "result": "approximately 1.7 fold"}, {"measurement": "skin penetration: two treatments of 2.5 mAmp×time versus single 5 mAmp×time pulse", "setting": "[1]; human, 24 h, 1 %, pH 7", "result": "did not equal the skin penetration seen with a single 5 amp×time pulse"}, {"measurement": "pKa", "setting": "[4]", "result": 5.0}]}
{"compound": "CCOC(=O)c1cccnc1", "note": "[ethyl nicotinate]", "values": [{"measurement": "skin penetration enhancement", "setting": "[1]", "result": "enhanced skin penetration"}, {"measurement": "time after application at which compound is detectable in the lower reservoir fluid", "setting": "[1]; human, 1 %", "result": "≤ 2", "unit": "h"}, {"measurement": "time at which enhanced effect of current is detectable", "setting": "[1]; human, 1 %", "result": "about 4 hour"}, {"measurement": "amount of compound in the receptor fluid", "setting": "[1]; human, 24 h, 1 %", "result": "over 1000 micrograms"}]}
{"compound": "NC(=O)NCCC[C@H](N)C(=O)O", "note": "[Citrulline]", "values": [{"measurement": "pKa", "setting": "[4]", "result": 9.4}]}
